Experimental findings from PubChem BioAssay AID1845195 (Molecular Pharmacology Branch, DTP, NCI, 2023) are described below.

For this assay, the system named is 156681-154-R-J1 tumor spheroid viability. As to the kind of experiment: Anticancer human tumor 156681-154-R-J1 patient-derived melanoma cell line growth inhibition. The following applies: spheroids with HUVEC and MSC; for viability, T/C: stronger effect = lower value. An excerpt:
Multicellular complex tumor spheroid response to DNA repair inhibitors in combination with DNA-damaging drugs
This study explores the anticancer activities of DNA-damaging drugs and inhibitors of DNA damage repair, both as single agents and in combinations. Complex tumor spheroids comprised of malignant cells, endothelial cells and mesenchymal stem cells served as an in vitro model for human solid tumors. This model system incorporates physiologically relevant features and patient-derived or established malignant cell lines with clinically relevant genetic alterations from many tumor types. Twenty-six patient-derived or established malignant cell lines were evaluated representing sarcoma, melanoma, small cell lung cancer (SCLC), non-small cell lung cancer (NSCLC), as well as bladder, ovarian and pancreatic cancers. The concentration ranges selected for each drug and investigational agent were based upon clinically achievable concentrations if the clinical Cmax of the agent was known.
Compounds. The drugs and compounds olaparib (NSC753686), talazoparib (NSC767125), berzosertib (NSC777718), elimusertib (NSC800525), nedisertib (NSC802822), VX-984 (NSC792969), AZD-1390 (NSC803789), temozolomide (NSC362856), topotecan (NSC609699), trabectedin (NSC813783), staurosporine (NSC755774), and gemcitabine (NSC613327) were obtained from the National Cancer Institute (NCI) Developmental Therapeutics Program Chemical Repository. The FDA-approved anticancer drug set is available from the Developmental Therapeutics Program at https://dtp.cancer.gov/organization/dscb/obtaining/available_plates.htm. […] The stock solutions were prepared in dimethyl sulfoxide (DMSO, Sigma-Aldrich, St. Louis, MO, cat. D2650) at 400-fold the tested concentration and stored at -70 degrees C. Prior to their use, the stock solutions were diluted in fresh medium and the final DMSO concentration in the assay was 0.25% (v/v). All drugs and investigational agents were tested over a range starting from a high concentration at or near the clinical Cmax and decreasing in half-log increments. If the clinical Cmax for an agent had not been determined, the highest concentration tested was 10 microM.
Cell Lines. The patient-derived cancer cell (PDC) lines: 156681-154-R-J1-PDC, 283228-195-R-J1-PDC, 287954-098-R-J1-PDC, 292921-168-R-J2-PDC, 349418-098-R-PDC, 425362-245-T-J1-PDC, 556581-035-R-J1-PDC, and BL0293-F563-PDC were received from the NCI Patient-Derived Models Repository (PDMR, https://pdmr.cancer.gov). The established cell lines HS-SY-2 (RRID:CVCL_8719), MPNST, and SYO-1 (RRID:CVCL_7146) were obtained from the Sloan Kettering Institute. The alveolar soft parts sarcoma cell line ASPS-1 (RRID:CVCL_S738) was established at the NCI and grown from internal seed stocks. The following established cell lines were purchased from the American Type Culture Collection (ATCC, Manassas, VA): G-401 (ATCC, cat. CRL-1441, RRID:CVCL_0270), SW982 (ATCC, cat. HTB-93, RRID:CVCL_1734), VA-ES-BJ (ATCC, cat. CRL-2138, RRID:CVCL_1785), NCI-H719 (ATCC, cat. CRL-5837, RRID:CVCL_1582), NCI-H196 (ATCC, cat. CRL-5823, RRID:CVCL_1509), NCI-H841 (ATCC, cat. CRL-5845, RRID:CVCL_1595), NCI-H1618 (ATCC, cat. CRL-5879, RRID:CVCL_1480), NCI-H1876 (ATCC, cat. CRL-5902, RRID:CVCL_1503), DMS 114 (ATCC, cat. CRL-2066; RRID:CVCL_1174), NCI-H211 (ATCC, cat. CRL-5824; RRID:CVCL_1529), and SW 1271 (ATCC, cat. CRL-2177, RRID:CVCL_1716). The small cell lung cancer cell line COR-L88 was purchased from Sigma-Aldrich (cat. 92031917-1VL, RRID:CVCL_1141). The non-small cell lung cancer cell lines NCI-H226 (RRID:CVCL_1544) and NCI-H322M (RRID:CVCL_1557) were established at the NCI and grown from internal seed stocks. Pooled donor human umbilical vein endothelial cells (HUVEC, Lonza, cat. CC-2519) and human mesenchymal stem cells (hMSC, Lonza, cat. PT-2501) were purchased from Lonza (Walkersville, MD).
Cell Culture. All cells were maintained in an incubator at 37 degrees C and 5% CO2 with 95% humidity. […]

Values joined by “and” are separate entries in the source; they are usually repeats but may differ in a detail not shown here. Equal values may be shown once.
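Also: spheroids exposed to compounds for 7 days before readout.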
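For viability, T/C in this document: percent of vehicle control viability where 100% = DMSO-treated spheroids.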

Regarding `Cc1sc2c(c1C)C(c1ccc(Cl)cc1)=NC(CC(=O)Nc1ccc(O)cc1)c1nnc(C)n1-2` (configuration not stated) + CC[C@@]1(O)C(=O)OCc2c1cc1n(c2=O)Cc2cc3c(CN(C)C)c(O)ccc3nc2-1, the IC50 was 1460 nM (curve of first compound, second compound 0.003 µM); 1960 nM (curve of first compound, second compound 0.00949 µM); 78.6 nM (curve of first compound, second compound 0.03 µM); less than 9.49 nM (curve of first compound, second compound 0.0949 µM); less than 9.49 nM (curve of first compound, second compound 0.3 µM). The viability, T/C (second compound 0.003 µM, first compound 0.00949 µM) is 155%; the viability, T/C (second compound 0.003 µM, first compound 0.03 µM) is 103%; the viability, T/C (second compound 0.003 µM, first compound 0.0949 µM) is 81.1%; the viability, T/C (second compound 0.003 µM, first compound 0.3 µM) is 70%; the viability, T/C (second compound 0.003 µM, first compound 0.949 µM) is 61.1%; the viability, T/C (second compound 0.003 µM, first compound 3 µM) is 47.4%. For the same compound, the viability, T/C was 68.4% (second compound 0.00949 µM, first compound 0.00949 µM); 88.6% (second compound 0.00949 µM, first compound 0.03 µM); 82.6% (second compound 0.00949 µM, first compound 0.0949 µM); 75.4% (second compound 0.00949 µM, first compound 0.3 µM); 62.4% (second compound 0.00949 µM, first compound 0.949 µM); 42.8% (second compound 0.00949 µM, first compound 3 µM). Besides, the viability, T/C is 50.1% (second compound 0.03 µM, first compound 0.00949 µM); 54.9% (second compound 0.03 µM, first compound 0.03 µM); 51.3% (second compound 0.03 µM, first compound 0.0949 µM); 39% (second compound 0.03 µM, first compound 0.3 µM); 29.8% (second compound 0.03 µM, first compound 0.949 µM); 19.1% (second compound 0.03 µM, first compound 3 µM). The viability, T/C is 22.5% (second compound 0.0949 µM, first compound 0.00949 µM); 21.8% (second compound 0.0949 µM, first compound 0.03 µM); 21% (second compound 0.0949 µM, first compound 0.0949 µM); 22.5% (second compound 0.0949 µM, first compound 0.3 µM); 24.6% (second compound 0.0949 µM, first compound 0.949 µM); 24.4% (second compound 0.0949 µM, first compound 3 µM). The viability, T/C runs as follows: (second compound 0.3 µM, first compound 0.00949 µM) 33.2%; (second compound 0.3 µM, first compound 0.03 µM) 29.1%; (second compound 0.3 µM, first compound 0.0949 µM) 31.1%; (second compound 0.3 µM, first compound 0.3 µM) 24.8%; (second compound 0.3 µM, first compound 0.949 µM) 25.4%; (second compound 0.3 µM, first compound 3 µM) 16.5%.

For `CC1COCCN1c1cc(-c2ccnn2C)c2ccnc(-c3ccn[nH]3)c2n1` (configuration not stated), the viability, T/C was 83.8% and 68.1% and 84.5% (compound 0.0316 µM); 77.6% and 66% and 75.6% (compound 0.1 µM); 37.2% and 34.3% and 47.2% (compound 0.316 µM); 30.1% and 21.7% and 29.9% (compound 1 µM); 31.1% and 24.6% and 29.9% (compound 3.16 µM); 25.2% and 20.8% and 22.6% (compound 10 µM). Under “curve of compound”, the IC50 was 220 nM and 179 nM and 286 nM.
